We go through three molecules from article PMC6437697 (Journal of Medicinal Chemistry, 2019).

Assay in all cases: KINOMEscan
What all share (type): binding

In assay [1] the target is T1, ABL1(F317I)-nonphosphorylated (Homo sapiens, UniProt P00519, F317I).
T1 construct: purchased Eurofins DiscoverX KINOMEscan
The note with it: read-out: % control activity remaining.

In another assay the target is T2, TNIK (Homo sapiens, UniProt Q9UKE5).
T2 construct: purchased Eurofins DiscoverX KINOMEscan
The note with it: read-out: % control activity remaining.

Another assay addresses T3, CAMK2A (Homo sapiens, UniProt Q9UQM7).
T3 construct: purchased Eurofins DiscoverX KINOMEscan
The note with it: read-out: % control activity remaining.

The target in another assay is T4, MAP3K2 (Homo sapiens, UniProt Q9Y2U5).
T4 construct: purchased Eurofins DiscoverX KINOMEscan
T4 sequence (Q9Y2U5 1-619): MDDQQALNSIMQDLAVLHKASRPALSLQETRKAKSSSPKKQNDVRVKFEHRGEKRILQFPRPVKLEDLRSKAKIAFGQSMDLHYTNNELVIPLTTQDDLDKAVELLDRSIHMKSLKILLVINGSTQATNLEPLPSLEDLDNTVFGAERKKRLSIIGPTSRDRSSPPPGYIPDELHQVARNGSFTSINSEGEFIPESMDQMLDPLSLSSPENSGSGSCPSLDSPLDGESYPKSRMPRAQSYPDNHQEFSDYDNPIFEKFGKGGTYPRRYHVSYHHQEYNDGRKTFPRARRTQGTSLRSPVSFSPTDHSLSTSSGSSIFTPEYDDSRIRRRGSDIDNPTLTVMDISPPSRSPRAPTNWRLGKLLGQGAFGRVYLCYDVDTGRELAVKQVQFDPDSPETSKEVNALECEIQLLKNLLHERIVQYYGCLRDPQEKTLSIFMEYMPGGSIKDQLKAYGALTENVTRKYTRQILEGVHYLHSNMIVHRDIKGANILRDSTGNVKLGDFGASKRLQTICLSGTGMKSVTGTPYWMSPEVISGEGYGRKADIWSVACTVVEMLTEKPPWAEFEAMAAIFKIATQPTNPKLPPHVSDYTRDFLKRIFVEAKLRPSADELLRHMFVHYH
The note with it: read-out: % control activity remaining.

The target of a further assay is T5, WEE2 (Homo sapiens, UniProt P0C1S8).
T5 construct: purchased Eurofins DiscoverX KINOMEscan
T5 sequence (P0C1S8 whole entry): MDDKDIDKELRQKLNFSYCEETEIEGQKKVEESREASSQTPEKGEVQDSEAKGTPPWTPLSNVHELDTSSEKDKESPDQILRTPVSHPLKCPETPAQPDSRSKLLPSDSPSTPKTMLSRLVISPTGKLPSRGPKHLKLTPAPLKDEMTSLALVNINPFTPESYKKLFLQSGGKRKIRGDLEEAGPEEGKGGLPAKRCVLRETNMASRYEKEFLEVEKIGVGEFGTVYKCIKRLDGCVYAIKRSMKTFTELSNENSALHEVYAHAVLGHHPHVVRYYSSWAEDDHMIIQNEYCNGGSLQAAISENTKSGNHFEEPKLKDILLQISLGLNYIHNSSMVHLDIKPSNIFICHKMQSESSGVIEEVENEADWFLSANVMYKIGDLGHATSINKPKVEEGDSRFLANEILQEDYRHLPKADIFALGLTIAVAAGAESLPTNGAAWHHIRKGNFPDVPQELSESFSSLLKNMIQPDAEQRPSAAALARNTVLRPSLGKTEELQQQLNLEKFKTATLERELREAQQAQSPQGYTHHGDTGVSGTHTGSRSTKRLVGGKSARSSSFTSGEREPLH
Conditions: read-out: % control activity remaining.

The target of another assay is T6, PRP4 (Homo sapiens, UniProt Q13523).
T6 construct: purchased Eurofins DiscoverX KINOMEscan
T6 sequence (Q13523 whole entry): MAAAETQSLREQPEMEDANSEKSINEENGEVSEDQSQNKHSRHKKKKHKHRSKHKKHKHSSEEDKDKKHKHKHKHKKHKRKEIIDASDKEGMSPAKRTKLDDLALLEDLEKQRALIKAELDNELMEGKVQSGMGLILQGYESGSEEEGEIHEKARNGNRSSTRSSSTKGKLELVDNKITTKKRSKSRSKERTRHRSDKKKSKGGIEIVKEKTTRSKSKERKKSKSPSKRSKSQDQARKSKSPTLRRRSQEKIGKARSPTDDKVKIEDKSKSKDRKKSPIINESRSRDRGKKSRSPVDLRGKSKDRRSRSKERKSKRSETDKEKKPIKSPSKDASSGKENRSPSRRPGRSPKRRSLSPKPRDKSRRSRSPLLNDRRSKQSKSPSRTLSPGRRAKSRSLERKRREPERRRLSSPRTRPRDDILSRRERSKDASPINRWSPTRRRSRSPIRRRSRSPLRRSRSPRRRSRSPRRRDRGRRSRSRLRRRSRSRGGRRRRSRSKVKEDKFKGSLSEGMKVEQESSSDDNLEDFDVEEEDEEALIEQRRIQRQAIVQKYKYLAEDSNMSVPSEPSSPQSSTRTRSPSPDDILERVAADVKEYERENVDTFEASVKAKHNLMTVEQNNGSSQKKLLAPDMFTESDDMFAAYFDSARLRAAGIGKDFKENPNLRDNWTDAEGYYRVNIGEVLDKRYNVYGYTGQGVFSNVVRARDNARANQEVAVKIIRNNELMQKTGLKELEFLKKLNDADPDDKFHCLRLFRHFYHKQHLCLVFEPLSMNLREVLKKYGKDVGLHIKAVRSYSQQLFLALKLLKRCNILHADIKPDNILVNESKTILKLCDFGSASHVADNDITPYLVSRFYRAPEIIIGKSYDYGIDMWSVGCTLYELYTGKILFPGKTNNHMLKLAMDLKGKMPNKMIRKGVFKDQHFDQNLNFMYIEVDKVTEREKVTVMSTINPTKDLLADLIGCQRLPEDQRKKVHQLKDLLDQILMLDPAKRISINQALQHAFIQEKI
The note with it: read-out: % control activity remaining.

The target of the next assay is T7, MAST1 (Homo sapiens, UniProt Q9Y2H9).
T7 construct: purchased Eurofins DiscoverX KINOMEscan
Conditions: read-out: % control activity remaining.

Another assay deals with T8, CIT (Homo sapiens, UniProt O14578).
T8 construct: purchased Eurofins DiscoverX KINOMEscan
The note with it: read-out: % control activity remaining.

Another assay concerns the target T9, PCTK2 (Homo sapiens, UniProt Q00537).
T9 construct: purchased Eurofins DiscoverX KINOMEscan
The note with it: for remaining binding at 1 µM: read-out: % control activity remaining.

A further assay concerns the target T10, MEK3 (Homo sapiens, UniProt P46734).
T10 construct: purchased Eurofins DiscoverX KINOMEscan
T10 sequence (P46734 1-347): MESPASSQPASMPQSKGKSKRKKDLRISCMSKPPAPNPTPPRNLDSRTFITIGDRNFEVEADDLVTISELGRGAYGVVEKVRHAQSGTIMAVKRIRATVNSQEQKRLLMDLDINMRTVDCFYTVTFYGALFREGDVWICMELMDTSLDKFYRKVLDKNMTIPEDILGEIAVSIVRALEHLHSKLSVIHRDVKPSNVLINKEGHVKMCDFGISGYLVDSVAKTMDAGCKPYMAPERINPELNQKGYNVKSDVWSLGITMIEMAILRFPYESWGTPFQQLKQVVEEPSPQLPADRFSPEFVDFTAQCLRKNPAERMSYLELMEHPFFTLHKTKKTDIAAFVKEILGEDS
The note with it: read-out: % control activity remaining.

In the next assay the target is T11, MELK (Homo sapiens, UniProt Q14680).
T11 construct: purchased Eurofins DiscoverX KINOMEscan
T11 sequence (Q14680 whole entry): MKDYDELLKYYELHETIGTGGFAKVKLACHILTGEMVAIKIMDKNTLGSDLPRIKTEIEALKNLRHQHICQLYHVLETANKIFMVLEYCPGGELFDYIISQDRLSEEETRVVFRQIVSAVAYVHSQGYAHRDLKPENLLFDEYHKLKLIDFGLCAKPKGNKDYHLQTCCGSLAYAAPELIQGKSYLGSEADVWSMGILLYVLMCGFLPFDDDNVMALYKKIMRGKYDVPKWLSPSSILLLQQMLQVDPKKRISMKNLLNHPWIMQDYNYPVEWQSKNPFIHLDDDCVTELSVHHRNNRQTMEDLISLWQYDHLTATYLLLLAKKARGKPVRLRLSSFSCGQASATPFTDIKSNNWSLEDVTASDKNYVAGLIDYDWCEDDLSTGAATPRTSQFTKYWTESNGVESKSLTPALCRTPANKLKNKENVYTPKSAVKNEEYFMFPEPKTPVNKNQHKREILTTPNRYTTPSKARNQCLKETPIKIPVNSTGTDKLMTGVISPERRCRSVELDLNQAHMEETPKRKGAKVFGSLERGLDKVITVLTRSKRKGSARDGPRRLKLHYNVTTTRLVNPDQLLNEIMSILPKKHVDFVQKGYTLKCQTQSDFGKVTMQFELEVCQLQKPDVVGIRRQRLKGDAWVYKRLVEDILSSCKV
Conditions: read-out: % control activity remaining.

A further assay addresses T12, TXK (Homo sapiens, UniProt P42681).
T12 construct: purchased Eurofins DiscoverX KINOMEscan
T12 sequence (P42681 1-527): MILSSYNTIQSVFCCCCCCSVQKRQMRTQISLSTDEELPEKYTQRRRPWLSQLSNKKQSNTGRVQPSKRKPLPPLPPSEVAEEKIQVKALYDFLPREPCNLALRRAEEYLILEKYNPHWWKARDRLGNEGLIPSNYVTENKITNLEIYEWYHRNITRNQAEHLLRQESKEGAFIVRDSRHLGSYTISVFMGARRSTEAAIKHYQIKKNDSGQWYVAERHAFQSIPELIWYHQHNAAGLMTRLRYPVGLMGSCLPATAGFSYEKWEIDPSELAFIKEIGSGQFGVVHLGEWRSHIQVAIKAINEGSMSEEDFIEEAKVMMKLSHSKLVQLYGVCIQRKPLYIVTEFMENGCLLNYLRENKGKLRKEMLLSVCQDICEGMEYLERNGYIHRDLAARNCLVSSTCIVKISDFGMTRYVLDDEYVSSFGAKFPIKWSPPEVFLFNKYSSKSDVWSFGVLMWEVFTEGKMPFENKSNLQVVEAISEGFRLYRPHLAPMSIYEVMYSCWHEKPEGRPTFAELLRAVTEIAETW
Conditions: read-out: % control activity remaining.

In another assay the target is T13, CLK2 (Homo sapiens, UniProt P49760).
T13 construct: purchased Eurofins DiscoverX KINOMEscan
The note with it: read-out: % control activity remaining.

The target in a further assay is T14, CDKL2 (Homo sapiens, UniProt Q92772).
T14 construct: purchased Eurofins DiscoverX KINOMEscan
T14 sequence (Q92772 1-493): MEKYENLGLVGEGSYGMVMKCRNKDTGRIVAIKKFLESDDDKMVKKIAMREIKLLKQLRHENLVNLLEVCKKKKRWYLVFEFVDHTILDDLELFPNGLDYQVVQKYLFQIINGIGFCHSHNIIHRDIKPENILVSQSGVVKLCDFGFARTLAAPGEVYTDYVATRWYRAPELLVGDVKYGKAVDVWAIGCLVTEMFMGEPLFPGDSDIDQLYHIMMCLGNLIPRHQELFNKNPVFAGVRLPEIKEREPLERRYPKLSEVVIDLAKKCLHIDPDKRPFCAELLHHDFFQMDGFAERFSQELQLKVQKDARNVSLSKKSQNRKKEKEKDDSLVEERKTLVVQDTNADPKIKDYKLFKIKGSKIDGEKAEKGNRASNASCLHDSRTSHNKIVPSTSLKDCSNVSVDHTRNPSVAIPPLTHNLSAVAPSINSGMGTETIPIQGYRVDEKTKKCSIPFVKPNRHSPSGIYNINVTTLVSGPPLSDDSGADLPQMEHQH
Conditions: read-out: % control activity remaining.

T3 sequence (Q9UQM7 whole entry): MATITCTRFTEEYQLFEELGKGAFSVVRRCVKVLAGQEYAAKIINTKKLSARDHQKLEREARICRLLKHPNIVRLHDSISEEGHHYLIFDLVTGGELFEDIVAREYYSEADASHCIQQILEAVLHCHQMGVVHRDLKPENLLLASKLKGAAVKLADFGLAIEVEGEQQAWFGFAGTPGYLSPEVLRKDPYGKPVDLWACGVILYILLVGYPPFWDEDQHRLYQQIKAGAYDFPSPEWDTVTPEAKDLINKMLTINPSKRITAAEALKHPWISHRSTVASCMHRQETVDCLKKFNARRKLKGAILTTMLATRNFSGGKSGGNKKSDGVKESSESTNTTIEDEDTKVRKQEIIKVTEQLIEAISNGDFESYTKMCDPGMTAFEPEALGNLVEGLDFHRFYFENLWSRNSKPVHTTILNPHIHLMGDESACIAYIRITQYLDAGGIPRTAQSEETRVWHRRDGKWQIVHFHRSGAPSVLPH
T9 sequence (Q00537 whole entry): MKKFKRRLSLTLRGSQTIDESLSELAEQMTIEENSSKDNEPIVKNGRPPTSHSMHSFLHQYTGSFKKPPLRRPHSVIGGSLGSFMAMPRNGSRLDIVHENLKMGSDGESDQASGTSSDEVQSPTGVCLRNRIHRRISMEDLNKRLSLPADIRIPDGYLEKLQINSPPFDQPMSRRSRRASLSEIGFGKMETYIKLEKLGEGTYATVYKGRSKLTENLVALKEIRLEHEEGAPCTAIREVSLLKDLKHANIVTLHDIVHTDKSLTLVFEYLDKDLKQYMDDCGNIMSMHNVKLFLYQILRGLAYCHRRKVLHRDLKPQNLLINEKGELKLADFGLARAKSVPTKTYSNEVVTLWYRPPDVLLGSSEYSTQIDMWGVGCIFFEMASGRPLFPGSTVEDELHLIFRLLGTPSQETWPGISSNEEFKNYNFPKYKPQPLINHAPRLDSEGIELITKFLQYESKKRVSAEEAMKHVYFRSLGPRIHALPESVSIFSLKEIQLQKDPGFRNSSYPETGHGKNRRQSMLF
T2 sequence (Q9UKE5 whole entry): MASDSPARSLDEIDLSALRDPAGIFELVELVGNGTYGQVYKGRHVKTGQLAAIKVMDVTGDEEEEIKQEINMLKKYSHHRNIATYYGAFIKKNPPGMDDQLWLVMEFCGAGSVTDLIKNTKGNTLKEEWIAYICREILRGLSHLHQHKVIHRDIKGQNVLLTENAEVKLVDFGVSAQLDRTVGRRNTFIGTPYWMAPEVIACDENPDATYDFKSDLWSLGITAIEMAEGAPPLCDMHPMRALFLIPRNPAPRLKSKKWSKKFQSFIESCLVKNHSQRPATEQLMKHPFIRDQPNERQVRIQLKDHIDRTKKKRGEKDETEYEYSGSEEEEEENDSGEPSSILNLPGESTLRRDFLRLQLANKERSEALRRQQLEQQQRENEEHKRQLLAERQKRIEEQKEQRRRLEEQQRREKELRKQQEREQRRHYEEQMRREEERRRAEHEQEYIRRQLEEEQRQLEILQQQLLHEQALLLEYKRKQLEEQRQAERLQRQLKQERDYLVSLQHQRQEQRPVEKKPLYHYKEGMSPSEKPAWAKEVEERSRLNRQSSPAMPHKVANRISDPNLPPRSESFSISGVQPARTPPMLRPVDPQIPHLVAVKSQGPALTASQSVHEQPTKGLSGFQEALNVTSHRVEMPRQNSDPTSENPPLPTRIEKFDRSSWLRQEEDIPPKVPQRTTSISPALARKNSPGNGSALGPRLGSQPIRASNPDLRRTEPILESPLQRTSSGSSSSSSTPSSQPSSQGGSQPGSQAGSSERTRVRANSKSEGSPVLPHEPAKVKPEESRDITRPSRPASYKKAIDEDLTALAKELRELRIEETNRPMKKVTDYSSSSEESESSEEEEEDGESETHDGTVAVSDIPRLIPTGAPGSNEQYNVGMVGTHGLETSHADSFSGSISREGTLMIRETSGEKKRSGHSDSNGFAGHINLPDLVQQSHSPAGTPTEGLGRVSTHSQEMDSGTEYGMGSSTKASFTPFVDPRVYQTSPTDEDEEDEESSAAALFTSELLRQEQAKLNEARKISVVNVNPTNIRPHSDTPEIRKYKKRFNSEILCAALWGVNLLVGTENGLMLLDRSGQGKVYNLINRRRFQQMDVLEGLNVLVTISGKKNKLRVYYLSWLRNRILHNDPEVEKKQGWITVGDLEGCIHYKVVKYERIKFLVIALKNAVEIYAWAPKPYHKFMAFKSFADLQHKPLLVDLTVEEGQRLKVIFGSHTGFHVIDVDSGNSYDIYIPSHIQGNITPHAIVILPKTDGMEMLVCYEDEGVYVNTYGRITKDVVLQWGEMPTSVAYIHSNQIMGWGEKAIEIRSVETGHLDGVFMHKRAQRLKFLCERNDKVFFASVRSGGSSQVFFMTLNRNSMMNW

Turning to `Clc1cc(NCC2CC2)c2ncc(-c3ccc4[nH]ncc4c3)n2n1` [compound 2, 6-Chloro-N-(cyclopropylmethyl)-3-(1H-indazol-5-yl)imidazo[1,2-b]pyridazin-8-amine], the remaining binding at 1 µM in assay [1] was 71%; at TNIK, 80%; on CAMK2A it was 100%; on MAP3K2, 74%; at WEE2, 94%; at PRP4, 60%. The remaining binding at 1 µM at MAST1 is 91%; at CIT, 73%; on PCTK2, 98%; on MEK3, 87%; at MELK, 35%; at TXK, 85%. Further, the figures for the remaining binding at 1 µM at CLK2 and at CDKL2 were 9.6% and 83%, respectively.

In the case of `O=C(CN1CCOCC1)N[C@H]1CC[C@H](Nc2cc(Cl)nn3c(-c4ccc5[nH]ncc5c4)cnc23)CC1` [compound 26], the remaining binding at 1 µM in assay [1] was determined as 28%; at TNIK it was 47%; at CAMK2A it was 47%; on MAP3K2, 100%; at WEE2, 87%; on PRP4, 97%. Also, the remaining binding at 1 µM on MAST1 worked out at 73%; at CIT, 74%; on PCTK2 it was 66%; on MEK3, 100%; at MELK, 16%; on TXK it was 88%. The figures for the remaining binding at 1 µM on CLK2 and at CDKL2 were 4.2% and 88%, respectively.

Regarding `CN1CCC(CNc2cc(Cl)nn3c(-c4cc5nc(Nc6ccccc6)[nH]c5cc4F)cnc23)CC1` [compound 31, 6-Chloro-3-(6-fluoro-2-(phenylamino)-1H-benzo[d]imidazol-5-yl)-N-((1-methylpiperidin-4-yl)methyl)imidazo[1,2-b]pyridazin-8-amine], the remaining binding at 1 µM was determined as 63% in assay [1]; 97% on TNIK; 99% on CAMK2A; 62% at MAP3K2; 97% at WEE2; 93% at PRP4. Also, the remaining binding at 1 µM at MAST1 was determined as 63%; on CIT, 85%; at PCTK2, 2.7%; on MEK3 it was 88%; on MELK it was 96%; on TXK it was 93%. Further, the remaining binding at 1 µM at CLK2 turned out to be 79%; on CDKL2 it was 81%. In addition, the inhibition at 1 µM at PCTK2 (read-out: Probe binding inhibited, 1 μM) came to 97%.
